For assay [1], the target named is T1, human B1R receptor (Homo sapiens, UniProt P46663).
T1 construct: host or cells: CHO K1 cells (Chinese hamster ovary), stably transfected
T1 sequence (P46663 1-353): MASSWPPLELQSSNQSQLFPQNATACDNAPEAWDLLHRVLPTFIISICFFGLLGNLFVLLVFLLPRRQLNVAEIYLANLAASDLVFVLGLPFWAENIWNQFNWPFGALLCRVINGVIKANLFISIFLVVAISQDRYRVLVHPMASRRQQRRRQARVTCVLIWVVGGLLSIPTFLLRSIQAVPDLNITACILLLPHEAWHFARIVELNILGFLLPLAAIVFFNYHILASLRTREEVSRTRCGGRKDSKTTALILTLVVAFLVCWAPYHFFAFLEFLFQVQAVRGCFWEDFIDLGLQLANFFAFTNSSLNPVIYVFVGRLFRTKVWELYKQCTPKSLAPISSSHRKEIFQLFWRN
Briefly: Functional study on the bradykinin receptor 1 (B1R), FLIPR Ca2+ assay, hB1R cells. Format: cell-based. The following applies: agonist Lys-Des-Arg9-bradykinin 0.5 nM, % inhibition compared with the maximum achievable inhibition; for inhibition at 10 µM: CHO-K1, test substance 10 μM, read-out: B1R Antagonism, human [10 μM] % Inhibition. A digest of the protocol:
(§1)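 Cells were dye-loaded 60 min at 37 °C, equilibrated 20 min at room temperature, then given 10 μM compound. Ten minutes later the species-matched agonist was added (0.5 nM Lys-Des-Arg9-bradykinin, human; 100 nM Des-Arg9-bradykinin, rat) and Ca2+ influx suppression expressed as % of maximum inhibition.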

For assay [2], the target named is T2, B1R receptor of the rat (Rattus norvegicus, UniProt P97583).
T2 construct: host or cells: CHO K1 cells (Chinese hamster ovary), stably transfected
T2 sequence (P97583 1-337): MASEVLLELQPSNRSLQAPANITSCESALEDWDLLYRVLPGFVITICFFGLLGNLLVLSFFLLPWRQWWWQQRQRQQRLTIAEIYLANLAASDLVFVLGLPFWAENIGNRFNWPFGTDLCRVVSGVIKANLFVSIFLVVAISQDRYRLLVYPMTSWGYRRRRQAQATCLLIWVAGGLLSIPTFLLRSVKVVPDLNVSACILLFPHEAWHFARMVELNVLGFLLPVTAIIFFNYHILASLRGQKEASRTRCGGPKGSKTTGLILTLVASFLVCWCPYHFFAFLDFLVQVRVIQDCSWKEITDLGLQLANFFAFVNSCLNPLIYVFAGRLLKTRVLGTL
Briefly: Functional study on the bradykinin receptor 1 (B1R), FLIPR Ca2+ assay, rB1R cells. The following applies: agonist Des-Arg9-bradykinin 100 nM, % inhibition compared with the maximum achievable inhibition; for inhibition at 10 µM: CHO-K1, test substance 10 μM, read-out: B1R Antagonism, rat [10 μM] % Inhibition. The assay is classed as cell-based. The method in brief:
as §1

Experimental findings from US8435978B2, “Substituted sulfonamide compounds” (Gruenenthal GmbH, priority 2006, dated 2013) are described below.

In general, inhibition refers to the relative decrease from the control value, in per cent.

Where a name gives a salt, the structure may show the parent alone.

`COc1cc(C)c(S(=O)(=O)N2CCCCC2COCC(=O)N(C)[C@H]2CCN(Cc3ccccc3)C2)c(C)c1` (stereo partly drawn) [Example 364, N—((S)-1-benzylpyrrolidin-3-yl)-2-((1-(4-methoxy-2,6-dimethylphenylsulfonyl)piperidin-2-yl)methoxy)-N-methylacetamide]: the values for the inhibition at 10 µM in assay [1] and in assay [2] were 105% and 101%, respectively.
With `O=C(COCC1CCCN1S(=O)(=O)c1c(Cl)cccc1Cl)N1CCN(c2cccc(Cl)c2)CC1` (centres unmarked) [Example 354, 1-(4-(3-chlorophenyl)piperazin-1-yl)-2-((1-(2,6-dichlorophenylsulfonyl)pyrrolidin-2-yl)methoxy)ethanone], the figures for the inhibition at 10 µM in assay [1] and in assay [2] were 62.5% and 102%, respectively.
Turning to `O=C(COCC1CCCCN1S(=O)(=O)c1c(Cl)cccc1Cl)N1CCCN(Cc2ccccc2)CC1` (centres unmarked) [Example 529, 1-(4-benzyl-1,4-diazepan-1-yl)-2-((1-(2,6-dichlorophenylsulfonyl)piperidin-2-yl)methoxy)ethanone], the inhibition at 10 µM was 106% in assay [1] and 101% in assay [2].
For `COc1cccc(N2CCN(C(=O)COCC3CCCCN3S(=O)(=O)c3c(Cl)cccc3Cl)CC2)c1` (centres unmarked) [Example 317, 2-((1-(2,6-dichlorophenylsulfonyl)piperidin-2-yl)methoxy)-1-(4-(3-methoxyphenyl)piperazin-1-yl)ethanone] the same measures were 92.2% and 100%.
With `CCN(CC)CCN(CCN(CC)CC)C(=O)COCC1Cc2ccccc2CN1S(=O)(=O)c1ccc(Cl)c(Cl)c1` (centres unmarked) [Example 43, 2-[2-(3,4-dichloro-phenylsulfonyl)-1,2,3,4-tetrahydro-isoquinolin-3-ylmethoxy]-N,N-bis-(2-diethylamino-ethyl)-acetamide], the figures for the inhibition at 10 µM in assay [1] and in assay [2] were 69.9% and 24.2%, respectively.
For `COc1cc(C)c(S(=O)(=O)N2CCCC2COCC(=O)N2CCCC2Cc2ccccn2)c(C)c1` (centres unmarked) [Example 447, 2-((1-(4-methoxy-2,6-dimethylphenylsulfonyl)pyrrolidin-2-yl)methoxy)-1-(2-(pyridin-2-ylmethyl)pyrrolidin-1-yl)ethanone] the same measures were 66.5% and 94.2%.
For `O=C(COCC1CCCCN1S(=O)(=O)c1c(Cl)cccc1Cl)N1CCN(c2ccc(C(F)(F)F)cn2)CC1` (centres unmarked) [Example 484, 2-((1-(2,6-dichlorophenylsulfonyl)piperidin-2-yl)methoxy)-1-(4-(5-(trifluoromethyl)pyridin-2-yl)piperazin-1-yl)ethanone] the same measures were 75.6% and 101%.
For `COc1cc(C)c(S(=O)(=O)N2CC[C@H]2COCC(=O)N2CCN(C3CCN(C)CC3)CC2)c(C)c1` [Example 135, (S)-2-((1-(4-methoxy-2,6-dimethylphenylsulfonyl)azetidin-2-yl)methoxy)-1-(4-(1-methylpiperidin-4-yl)piperazin-1-yl)ethanone] the same measures were 103% and 98.3%.
Take `COc1cc(C)c(S(=O)(=O)N2CCCC2COCC(=O)NCc2ccc(CN3CCN(C)CC3)cc2)c(C)c1` (centres unmarked) [Example 40, 2-[1-(4-methoxy-2,6-dimethyl-phenylsulfonyl)-pyrrolidin-2-ylmethoxy]-N-[4-(4-methyl-piperazin-1-ylmethyl)-benzyl]-acetamide]: the inhibition at 10 µM in assay [1] is 72.7%; in assay [2], 88.7%.
As to `O=C(COCC1CCCCN1S(=O)(=O)c1c(Cl)cccc1Cl)N1CCN(c2ccc(C(F)(F)F)cc2)CC1` (centres unmarked) [Example 550, 2-((1-(2,6-dichlorophenylsulfonyl)piperidin-2-yl)methoxy)-1-(4-(4-(trifluoromethyl)phenyl)piperazin-1-yl)ethanone], the values for the inhibition at 10 µM in assay [1] and in assay [2] were 57.8% and 101%, respectively.
For `Cc1ccccc1S(=O)(=O)N1CCCCC1COCC(=O)N1CCN(C2CCN(C)CC2)CC1` (centres unmarked) [Example 159, 1-(4-(1-methylpiperidin-4-yl)piperazin-1-yl)-2-((1-(o-tolylsulfonyl)piperidin-2-yl)methoxy)ethanone dihydrochloride], the inhibition at 10 µM came to 99.2% in assay [1] and 101% in assay [2].
For `COc1cc(C)c(S(=O)(=O)N2CCCCC2COCC(=O)NCCn2nccc2C)c(C)c1` (centres unmarked) [Example 416, 2-((1-(4-methoxy-2,6-dimethylphenylsulfonyl)piperidin-2-yl)methoxy)-N-(2-(5-methyl-1H-pyrazol-1-yl)ethyl)acetamide] the same measures were 50.2% and 101%.
For `O=C(COCC1CCCN1S(=O)(=O)c1c(Cl)cccc1Cl)N1CCN(Cc2ccc(Cl)c(Cl)c2)CC1` (centres unmarked) [Example 357, 1-(4-(3,4-dichlorobenzyl)piperazin-1-yl)-2-((1-(2,6-dichlorophenylsulfonyl)pyrrolidin-2-yl)methoxy)ethanone] the same measures were 79.4% and 104%.
For `COc1ccc(S(=O)(=O)N2CCCCC2CCOCC(=O)N2CCN(CCN3CCCCC3)CC2)cc1` (centres unmarked) [Example 221, 2-(2-(1-(4-methoxyphenylsulfonyl)piperidin-2-yl)ethoxy)-1-(4-(2-(piperidin-1-yl)ethyl)piperazin-1-yl)ethanone] the same measures were 38% and 89.6%.
`COc1cc(OC)cc(N2CCN(C(=O)COCC3CCCCN3S(=O)(=O)c3c(Cl)cc(Cl)cc3Cl)CC2)c1` (centres unmarked) [Example 253, 1-(4-(3,5-dimethoxyphenyl)piperazin-1-yl)-2-((1-(2,4,6-trichlorophenylsulfonyl)piperidin-2-yl)methoxy)ethanone]: the results for the inhibition at 10 µM in assay [1] and in assay [2] were 59.3% and 101%, respectively.
With `O=C(COCC1CCCCN1S(=O)(=O)c1ccc(Cl)c(Cl)c1)N1CCC(CCN2CCCCC2)CC1` (centres unmarked) [Example 20, 2-((1-(3,4-dichlorophenylsulfonyl)piperidin-2-yl)methoxy)-1-(4-(2-(piperidin-1-yl)-ethyl)piperidin-1-yl)ethanone], the inhibition at 10 µM in assay [1] came out at 94.9%; in assay [2] it was 86.4%.
For `O=C(COCC1CCCCN1S(=O)(=O)c1c(Cl)cc(Cl)cc1Cl)NCc1ccc(CN2CCCCC2)cc1` (centres unmarked) [Example 4, N-(4-piperidin-1-ylmethyl-benzyl)-2-[1-(2,4,6-trichloro-phenylsulfonyl)-piperidin-2-ylmethoxy]-acetamide] the same measures were 104% and 106%.
As to “N-(3-(1H-benzo[d]imidazol-2-yl)propyl)-2-((1-(4-methoxy-2,6-dimethylphenylsulfonyl)piperidin-2-yl)methoxy)acetamide [Example 525]”, the “B1R Antagonism, human [10 μM] % Inhibition” value in assay [1] (test substance 10 μM, hB1R CHO K1 cells) stood at 15.41%. Moreover, the “B1R Antagonism, rat [10 μM] % Inhibition” value in assay [2] (test substance 10 μM, rB1R CHO K1 cells) turned out to be 102.31%.
`COc1cc(C)c(S(=O)(=O)N2CCCCC2COCC(=O)N2CCN(c3ccc(C)c(C)c3)CC2)c(C)c1` (centres unmarked) [Example 512, 1-(4-(3,4-dimethylphenyl)piperazin-1-yl)-2-((1-(4-methoxy-2,6-dimethylphenylsulfonyl)piperidin-2-yl)methoxy)ethanone]: the inhibition at 10 µM in assay [1] is 93%; in assay [2], 102%.
For `Cc1cccc(CC2CCCN2C(=O)COCC2CCCCN2S(=O)(=O)c2c(Cl)cccc2Cl)n1` (centres unmarked) [Example 458, 2-((1-(2,6-dichlorophenylsulfonyl)piperidin-2-yl)methoxy)-1-(2-((6-methylpyridin-2-yl)methyl)pyrrolidin-1-yl)ethanone] the same measures were 103% and 100%.
For `O=C(COC[C@@H]1Cc2ccccc2CN1S(=O)(=O)c1ccc(Cl)cc1Cl)N1CCC(CCN2CCCC2)CC1` [Example 183, (S)-2-((2-(2,4-dichlorophenylsulfonyl)-1,2,3,4-tetrahydroisoquinolin-3-yl)methoxy)-1-(4-(2-(pyrrolidin-1-yl)ethyl)piperidin-1-yl)ethanone] the same measures were 100% and 96.9%.
As to `O=C(COCC1CCCN1S(=O)(=O)c1c(Cl)cccc1Cl)N1CCCCC1Cc1ccncc1` (centres unmarked) [Example 453, 2-((1-(2,6-dichlorophenylsulfonyl)pyrrolidin-2-yl)methoxy)-1-(2-(pyridin-4-ylmethyl)piperidin-1-yl)ethanone], the inhibition at 10 µM turned out to be 40.5% in assay [1] and 74.4% in assay [2].
